# Active and inactive are the calls of the source. The rule behind the calls is not given here. *1 amine or outer side, *2 acyl side, *3 side chain or, on linkers, in order; H or OH if unused. Where a SMILES comes first, the peptide text is derived from it. Bridges are numbered along the chain shown (N, C = ends). [ ]: non-standard residue; d: D form. The star is where a group is joined. Met(S-mXyl) = C[S+](CC[C@H](N[*:1])C(=O)[*:2])Cc1cccc(C[*:3])c1; X1 = Cc1ccc(N*)cc1C(=O)NC(C)c1cccc2ccccc12
# Tested on: Severe acute respiratory syndrome coronavirus 2
# Test: Covalent binding affinity to SARS-CoV-2 mutant PLpro Cys111S at 10 uM incubated for 2 hrs by SDS gel analysis
compound,measurement,value
Cc1ccc(NC(=O)CC[C@H](N)C(=O)N[C@H]2CC[S+](C)Cc3cccc(c3)CSC[C@@H](C(=O)O)NC(=O)CNC(=O)[C@H](CCCNC(=N)N)NC(=O)[C@H](CC(C)C)NC2=O)cc1C(=O)NC(C)c1cccc2ccccc12 (stereo partly specified) (H-E(X1)[Met(S-mXyl)]LRGC-OH; thioether 2-6),Activity,inactive
